Drawing on paper PMC6804140, “Peptidomic Approach for the Identification of Peptides with Potential Antioxidant and Anti-Hyperthensive Effects Derived From Asparagus By-Products” (Molecules, 2019), this text covers EC50 for two substances.

The target of the assay is T1, ACE from rabbit lung (Oryctolagus cuniculus, UniProt P12822).
T1 construct: ACE from rabbit lung; purchased Sigma-Aldrich (St. Louis, MO, USA); host or cells: rabbit lung tissue
T1 sequence (P12822 34-1310): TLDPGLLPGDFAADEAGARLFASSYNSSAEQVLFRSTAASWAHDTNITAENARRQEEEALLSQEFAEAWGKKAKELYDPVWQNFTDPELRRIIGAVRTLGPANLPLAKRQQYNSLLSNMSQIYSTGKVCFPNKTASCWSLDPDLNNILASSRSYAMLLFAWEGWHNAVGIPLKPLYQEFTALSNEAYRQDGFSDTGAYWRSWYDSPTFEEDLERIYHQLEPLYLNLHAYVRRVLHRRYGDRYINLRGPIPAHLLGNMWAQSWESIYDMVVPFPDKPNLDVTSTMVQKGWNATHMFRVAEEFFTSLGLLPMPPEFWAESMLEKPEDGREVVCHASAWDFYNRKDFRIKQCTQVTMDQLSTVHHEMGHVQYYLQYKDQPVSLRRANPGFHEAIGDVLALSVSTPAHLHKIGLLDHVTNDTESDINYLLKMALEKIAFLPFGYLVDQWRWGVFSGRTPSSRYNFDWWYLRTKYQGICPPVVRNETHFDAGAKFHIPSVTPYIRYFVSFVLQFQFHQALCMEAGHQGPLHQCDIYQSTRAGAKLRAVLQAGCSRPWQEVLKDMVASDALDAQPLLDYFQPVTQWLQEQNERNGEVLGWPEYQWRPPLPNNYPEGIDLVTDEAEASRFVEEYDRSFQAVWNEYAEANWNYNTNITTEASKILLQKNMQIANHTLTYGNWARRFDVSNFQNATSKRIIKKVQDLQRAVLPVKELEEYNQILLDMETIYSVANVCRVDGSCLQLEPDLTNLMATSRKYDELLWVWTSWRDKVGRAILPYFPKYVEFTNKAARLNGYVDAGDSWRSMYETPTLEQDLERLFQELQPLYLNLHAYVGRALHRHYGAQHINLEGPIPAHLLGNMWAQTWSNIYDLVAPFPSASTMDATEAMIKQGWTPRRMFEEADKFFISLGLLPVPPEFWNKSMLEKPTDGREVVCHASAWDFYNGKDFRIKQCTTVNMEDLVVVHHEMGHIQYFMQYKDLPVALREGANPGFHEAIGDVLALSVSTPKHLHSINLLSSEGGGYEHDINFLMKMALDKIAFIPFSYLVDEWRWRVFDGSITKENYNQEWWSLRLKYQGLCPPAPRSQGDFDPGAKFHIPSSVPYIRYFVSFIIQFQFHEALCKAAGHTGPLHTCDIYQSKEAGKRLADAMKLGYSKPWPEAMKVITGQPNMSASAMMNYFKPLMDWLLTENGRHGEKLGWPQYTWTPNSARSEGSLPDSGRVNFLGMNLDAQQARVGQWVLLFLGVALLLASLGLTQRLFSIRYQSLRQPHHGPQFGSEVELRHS
Kind of assay: ACE-inhibitory assay. As to conditions: synthetic peptide (90%); pH 8.3, 37 °C, 90 min, 228 nm; fit Origin 9.0; ± SD in Table 1; read-out: EC50 value, ACE inhibition assay. The class given is biochemical.

Ends that are not written are not given here.

Usually EC50 stands for the concentration giving half of the maximal effect. For the substance ASQSIWLPGWL [ASQSIWLPGWL], the concentration giving a half-maximal response (EC50) amounted to 4.02 ± 1.79 µM.
In the case of PDWFLLL [PDWFLLL], the EC50 is 5.74 ± 2.35 µM.
